Read-outs that look alike come from different tables or passages of the source. Marks after values point to notes of the source that are not given here. No end group written: not given here.
Columns and labels:
PBMC = test: two-step IFNγ ELISpot assay with human PBMC; type: cell-based; settings: 7 d pre-culture with GAD65 peptide pool, 48 h restimulation, triplicate;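 also: background is unstimulated wells, counts given per 1 million cells, 200,000–250,000 cells per well, restimulated at 37°C, read by Zeiss plate reader, IL-2 and IL-7 fed during pre-culture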
DRB1*0401 = DRB1*0401 (Homo sapiens, UniProt P01903+P01911, A100K/A169T/F76Y/I96L/K127E/L162R/M171V/N62H/P40V/Q125Y/R42H/S133A/S149N/S66Y/V115G/V209L/W38E); settings: read-out: DRB1*0401 IC50; competition with biotin-Flu-HA 306–318 at 0.1 μM, 24 h, 37°C; NB = non-binder
DRB1*0701 [1] = target: T1, DRB1*0701 (Homo sapiens, UniProt P01903+P01911, A100R/A102G/A103Q/D57E/D86V/E43K/F76Y/K127E/L162R/M171V/P40G/Q125H/Q99D/R33Q/R42Y/R54Q/S133A/S66F/T210M/V115G/Y107V/Y59L/Y89S); test: biochemical
DRB1*0101 = DRB1*0101 (Homo sapiens, UniProt P01903+P01911, A100R/D57E/F55L/F60I/F76Y/I96L/L162R/M171V/P40L/Q125E/R42F/V115G/Y59C); test: biochemical
DRB1*1501 = target: T2, DRB1*1501 (Homo sapiens, UniProt P01903+P01911); test: competition-based HLA binding assay
T2 construct: gift: William Kwok, Benaroya Institute, Seattle

DRB1*0701 [2] = target: T1, DRB1*0701; settings: read-out: DRB1*0701 IC50; competition with biotin-Flu-HA 306–318 at 1 μM, 24 h, 37°C; NB = non-binder
[3] = Negative Control 668 PBMC, Tregitope + (5 μg/mL each human Tregitopes 167 and 289)
[4] = Negative Control 668 PBMC, Tregitope −
[5] = Negative Control 669 PBMC, Tregitope + (5 μg/mL each human Tregitopes 167 and 289)
[6] = Negative Control 669 PBMC, Tregitope −
[7] = Negative Control 670 PBMC, Tregitope + (5 μg/mL each human Tregitopes 167 and 289)
[8] = Negative Control 670 PBMC, Tregitope −
[9] = Negative Control 674 PBMC, Tregitope + (5 μg/mL each human Tregitopes 167 and 289)
[10] = Negative Control 674 PBMC, Tregitope −
[11] = Subject D1101H (T1D) PBMC, Tregitope + (5 μg/mL each human Tregitopes 167 and 289)
[12] = Subject D1101H (T1D) PBMC, Tregitope −
[13] = Subject D1104H (T1D) PBMC, Tregitope + (5 μg/mL each human Tregitopes 167 and 289)
[14] = Subject D1104H (T1D) PBMC, Tregitope −
[15] = Subject D1105H (T1D) PBMC, Tregitope + (5 μg/mL each human Tregitopes 167 and 289)
[16] = Subject D1105H (T1D) PBMC, Tregitope −
[17] = Subject D1106H (T1D) PBMC, Tregitope + (5 μg/mL each human Tregitopes 167 and 289)
[18] = Subject D1106H (T1D) PBMC, Tregitope −
[19] = Subject D1100H (T1D) PBMC, Tregitope + (5 μg/mL each human Tregitopes 167 and 289)
[20] = Subject D1100H (T1D) PBMC, Tregitope −
[21] = Subject D1107H (T1D) PBMC, Tregitope + (5 μg/mL each human Tregitopes 167 and 289)
[22] = Subject D1107H (T1D) PBMC, Tregitope −

Which results are given for “NMFTYEIAPVFVLLEYVTLKKMRE [GAD65_203–226]”?
IFNγ ELISpot SFC over background (PBMC; [3]): 460 SFC over BG/10^6; IFNγ ELISpot SFC over background (PBMC; [4]): 475 SFC over BG/10^6; IFNγ ELISpot SFC over background (PBMC; [5]): 52 SFC over BG/10^6; IFNγ ELISpot SFC over background (PBMC; [6]): 109 SFC over BG/10^6; IFNγ ELISpot SFC over background (PBMC; [7]): 82** SFC over BG/10^6; IFNγ ELISpot SFC over background (PBMC; [8]): 329 SFC over BG/10^6; IFNγ ELISpot SFC over background (PBMC; [9]): 109 SFC over BG/10^6; IFNγ ELISpot SFC over background (PBMC; [10]): 168 SFC over BG/10^6; IFNγ ELISpot SFC over background (PBMC; [11]): 51 SFC over BG/10^6; IFNγ ELISpot SFC over background (PBMC; [12]): 157 SFC over BG/10^6; IFNγ ELISpot SFC over background (PBMC; [13]): 154 SFC over BG/10^6; IFNγ ELISpot SFC over background (PBMC; [14]): 221 SFC over BG/10^6; IFNγ ELISpot SFC over background (PBMC; [15]): 138* SFC over BG/10^6; IFNγ ELISpot SFC over background (PBMC; [16]): 245 SFC over BG/10^6; IFNγ ELISpot SFC over background (PBMC; [17]): 138 SFC over BG/10^6; IFNγ ELISpot SFC over background (PBMC; [18]): 207 SFC over BG/10^6; IC50 (DRB1*0401): < 25 µM

LGDKVNFFRMVISNPAATHQD [GAD65_550–570] was tested. Which “IFNγ ELISpot SFC over background” value (PBMC; [3]) did it give?
The value was 440 SFC over BG/10^6.

And the “IFNγ ELISpot SFC over background” value (PBMC; [4])?
The value was 312 SFC over BG/10^6.

What about the “IFNγ ELISpot SFC over background” value (PBMC; [5]) of the same substance?
Its value is 30** SFC over BG/10^6.

And the “IFNγ ELISpot SFC over background” value (PBMC; [6])?
Its value is 144 SFC over BG/10^6.

What about the “IFNγ ELISpot SFC over background” value (PBMC; [7]) of the same substance?
The value was −90 SFC over BG/10^6.

What about the “IFNγ ELISpot SFC over background” value (PBMC; [8]) of the same substance?
The value was 25 SFC over BG/10^6.

And the “IFNγ ELISpot SFC over background” value (PBMC; [9])?
The value was 431 SFC over BG/10^6.

What about the “IFNγ ELISpot SFC over background” value (PBMC; [10]) of the same substance?
The value was 490 SFC over BG/10^6.

What about the “IFNγ ELISpot SFC over background” value (PBMC; [19]) of the same substance?
The value was 141 SFC over BG/10^6.

And the “IFNγ ELISpot SFC over background” value (PBMC; [20])?
The value was 199 SFC over BG/10^6.

And the “IFNγ ELISpot SFC over background” value (PBMC; [11])?
The value was 100 SFC over BG/10^6.

What about the “IFNγ ELISpot SFC over background” value (PBMC; [12]) of the same substance?
The value was 126 SFC over BG/10^6.

What about the “IFNγ ELISpot SFC over background” value (PBMC; [13]) of the same substance?
Its value is 101 SFC over BG/10^6.

And the “IFNγ ELISpot SFC over background” value (PBMC; [14])?
The value was 146 SFC over BG/10^6.

What about the “IFNγ ELISpot SFC over background” value (PBMC; [15]) of the same substance?
Its value is 228* SFC over BG/10^6.

And the “IFNγ ELISpot SFC over background” value (PBMC; [16])?
Its value is 352 SFC over BG/10^6.

What about the “IFNγ ELISpot SFC over background” value (PBMC; [17]) of the same substance?
Its value is 113 SFC over BG/10^6.

And the “IFNγ ELISpot SFC over background” value (PBMC; [18])?
The value was 88 SFC over BG/10^6.

And the “IFNγ ELISpot SFC over background” value (PBMC; [21])?
The value was 1** SFC over BG/10^6.

What about the “IFNγ ELISpot SFC over background” value (PBMC; [22]) of the same substance?
Its value is 160 SFC over BG/10^6.

And the IC50 (DRB1*0401)?
Its IC50 is less than 25 µM.

For “GAD65 protein: whole GAD65 protein (Kronus, UK)”, which “IFNγ ELISpot SFC over background” value (PBMC; [9]) is on record?
The value was 818 SFC over BG/10^6.

And the “IFNγ ELISpot SFC over background” value (PBMC; [10])?
Its value is 44 SFC over BG/10^6.

And the “IFNγ ELISpot SFC over background” value (PBMC; [19])?
The value was 77 SFC over BG/10^6.

What about the “IFNγ ELISpot SFC over background” value (PBMC; [20]) of the same substance?
Its value is 413 SFC over BG/10^6.

And the “IFNγ ELISpot SFC over background” value (PBMC; [11])?
Its value is 59 SFC over BG/10^6.

And the “IFNγ ELISpot SFC over background” value (PBMC; [12])?
Its value is 37 SFC over BG/10^6.

And the “IFNγ ELISpot SFC over background” value (PBMC; [13])?
The value was 69 SFC over BG/10^6.

And the “IFNγ ELISpot SFC over background” value (PBMC; [14])?
The value was 32 SFC over BG/10^6.

And the “IFNγ ELISpot SFC over background” value (PBMC; [17])?
Its value is 591 SFC over BG/10^6.

And the “IFNγ ELISpot SFC over background” value (PBMC; [18])?
Its value is 670 SFC over BG/10^6.

What about the “IFNγ ELISpot SFC over background” value (PBMC; [21]) of the same substance?
The value was 46 SFC over BG/10^6.

What about the “IFNγ ELISpot SFC over background” value (PBMC; [22]) of the same substance?
The value was 95 SFC over BG/10^6.

Which IC50 (DRB1*0701 [1]) does the source give for VDVFKLWLMWRAKGTTGFEAH [GAD65_450–470] here?
Its IC50 is 10.2 µM.

What about the IC50 (DRB1*0101) of the same substance?
The IC50 was 25.4 µM.

And the IC50 (DRB1*0401)?
The IC50 was greater than 50 µM.

And the IC50 (DRB1*1501)?
The IC50 was 11.4 µM.

How did the IC50 (DRB1*0701 [2]) turn out when TTVYGAFDPLLAVAD [GAD65_338–352] was run?
The IC50 was greater than 50 µM.

What about the IC50 (DRB1*0101) of the same substance?
Its IC50 is 4.1 µM.

What about the IC50 (DRB1*0401) of the same substance?
Its IC50 is greater than 50 µM.

And the IC50 (DRB1*1501; competition with biotin-MBP 84–102 at 0.5 μM, 24 h, 37°C, NB = non-binder, read-out: DRB1*1501 IC50)?
The IC50 was 31.3 µM.

For “GAISNMYAMMIARFKMFPEVKEKGM [GAD65_243–267]”, which IC50 (DRB1*0701 [1]) is on record?
Its IC50 is 8.7 µM.

And the IC50 (DRB1*0101)?
Its IC50 is less than 5 µM.

What about the IC50 (DRB1*1501) of the same substance?
The IC50 was less than 5 µM.

Source: article PMC3655598, “Application of IgG-Derived Natural Treg Epitopes (IgG Tregitopes) to Antigen-Specific Tolerance Induction in a Murine Model of Type 1 Diabetes” (Journal of Diabetes Research, 2013)
